Reference: US9717708B1, “Process for preparing ertapenem-containing lyophilized formulation” (DAEWOONG PHARMACEUTICAL CO., LTD., priority 2014, dated 2017)

How the values were obtained:
[1] = Purity (HPLC) before and after lyophilization and during storage, lyophilized formulation containing doripenem monohydrate; assay type: physicochemical; settings: lyophilized formulations containing doripenem
Protocol: (§1) Hydroxypropyl β-cyclodextrin (HP-β-CD) [MS=0.65, 2.76 g (1.0 eq.)] was dissolved in distilled water (16 mL). After cooling the solution to 0˜5° C., 10 portions of ertapenem monosodium salt (1 g in total, each portion having the same amount) were sequentially added to the solution for 60 minutes, while maintaining pH 7.8 with a 2N NaOH solution. The resulting solution was sterile-filtered at 0˜5° C., filled in a vial, and then lyophilized as follows: The filled vial was located on the shelf of a lyophilizer pre-cooled to −40° C. and then cooled for 3 hours. Vacuum (80 mTorr) was applied to the shelf, which was then heated to −20° C. at the rate of 0.5° C./min. The shelf was maintained under the conditions of −20° C. and 80 mTorr for 48 hours. The shelf was heated to 10° C. at the rate of 0.1° C./min and then to 40° C. at the rate of 0.5° C./min. […]
(§2) We evaluated whether or not hydroxypropyl β-cyclodextrin can also function both as a cryoprotective agent and as a stabilizing agent in the lyophilized formulations containing carbapenem antibiotics other than ertapenem. […] The purities before the lyophilization, the purities right after the lyophilization, and the purities of the lyophilized formulations which were respectively stored at low temperature (−20° C.), at room temperature, and under the accelerated (40° C., RH75%) condition for 4 weeks were respectively measured with a HPLC. […]

[2] = Purity (HPLC) before and after lyophilization and during storage, lyophilized formulation containing meropenem trihydrate; assay type: physicochemical; settings: lyophilized formulations containing meropenem
Protocol: as §1, §2

Row | SMILES | function of hydroxypropyl β-cyclodextrin as cryoprotective and stabilizing agent [1] | function of hydroxypropyl β-cyclodextrin as cryoprotective and stabilizing agent [2]
1 | C[C@@H](O)[C@H]1C(=O)N2C(C(=O)O)=C(S[C@@H]3CN[C@H](CNS(N)(=O)=O)C3)[C@H](C)[C@H]12 [doripenem, doripenem monohydrate] | did not function as a cryoprotective agent nor as a stabilizing agent | 
2 | C[C@@H](O)[C@H]1C(=O)N2C(C(=O)O)=C(S[C@@H]3CN[C@H](C(=O)N(C)C)C3)[C@H](C)[C@H]12 [meropenem, meropenem trihydrate] |  | did not function as a cryoprotective agent nor as a stabilizing agent
